In one experiment the test system is HCT116. In words: Cytotoxicity, propidium iodide assay, HCT116. In kind it is cell-based. Conditions: Homo sapiens, HCT-116; Colon, HCT116, 48 hours treatment; read-out: IC50, C4a (HCT116). In outline: (§1)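 3000 cells/well; 18-24 h attachment at 37° C./5% CO2; compound 48 h; PBS wash; 7 μg/ml PI; freeze −70° C. ≥24 h; thaw to RT, fluorescence read; IC50 from % viability vs untreated.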

Another experiment concerns H460. In words: Cytotoxicity, propidium iodide assay, H460. The format is cell-based. As to conditions: Homo sapiens, NCI-H460; Lung, H460, 48 hours treatment; read-out: IC50, C1b (H460). In a few lines:
as §1

The next experiment relates to IL-6. In words: Human monocyte assay, LPS-stimulated IL-6 (ELISA). In kind it is cell-based. Conditions: human monocytes, 1 μg/ml LPS, 5 hours. In outline:
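IL-6 and TNF-α in supernatants were quantified by ELISA after 5 h of 1 μg/ml LPS (E. coli 0111:B4) challenge at 37 °C, following a 30 min compound pretreatment (vehicle 0.5% DMSO). Cells were adherent human blood monocytes, 2×10^4 per well, cultured 48 h beforehand. Nonlinear regression gave IC50; a parallel MTS plate checked toxicity.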

In the next experiment the test system is A2780. Nature of the experiment: Cytotoxicity, propidium iodide assay, A2780. The format is cell-based. Conditions: Homo sapiens; Ovarian, A2780, 48 hours treatment; read-out: IC50, C3a (A2780). In a few lines: as §1
For experiment [1], the system named is colorectal cancer (cell line HCT116) tumor model. In words: In vivo efficacy, HCT116 xenograft model in SCID mice. As to conditions: 50 mpk oral, every day for 14 days. As to the method: In-vivo efficacy of the compounds of the present invention was tested in colorectal cancer (cell line HCT116) tumor model Animals were housed and cared for in accordance with the Guidelines in force published by CPCSEA (Committee for the Purpose of Control and Supervision of Experiments on Animals), Tamil Nadu, India. Procedures using laboratory animals were approved by the IAEC (Institutional Animal Ethics Committee) of the Research Center of Piramal Life Sciences Limited, Mumbai, India.
Compound storage: All the compounds including standard were stored at 4-8° C. in an amber colored bottle. The compounds in solutions were also maintained at 4-8° C. in a refrigerator. Sample for animal injection was made fresh everyday.
Dose preparation: Required compound was weighed and mixed with 0.5% (w/v) carboxymethyl cellulose (CMC) and triturated with Tween-20 (secundum artum) with gradual addition of water to make up the final concentration.
Efficacy study in SCID mice: Severely Combined Immune-Deficient (SCID strain-CBySmn.CB17-Prkdc^scid/J, The Jackson Laboratory, Stock #001803) male mice weighing about 20 g of 6-9 weeks old were used in the study.
HCT116 cells were grown in McCoy's 5A medium containing 10% fetal calf serum in 5% CO2 incubator at 37° C. Cells were pelleted by centrifugation at 1000-rpm for 10 minutes. Cells were resuspended in sterile 1×PBS to get a count of 25×10^6 cells per mL, 0.2 mL of this cell suspension (corresponding to 5×10^6 cells) was injected by subcutaneous (s.c.) route in SCID mice. Mice were observed every alternate day for palpable tumor mass. Once the tumor size reached a size of 5-7 mm in diameter, animals were randomized into respective treatment groups. Dose was administered every day for 14 days. Tumor size was recorded on every second day.
Tumor weight (mg) was estimated according to the formula for a prolate ellipsoid: {Length (mm)×[width (mm)^2]×0.5}assuming specific gravity to be one and π to be three.
Tumor growth in compound treated animals was calculated as T/C (Treated/Control)×100% and Growth inhibition Percent (GI %) was [100−T/C %]. […]

`CC(C)(C#N)c1ccc(-n2c(=O)n(C(=O)c3ccccc3)c3cnc4ccc(Br)cc4c32)cc1` [Example 30, 2-(4-(3-Benzoyl-8-bromo-2-oxo-2,3-dihydro-1H-imidazo[4,5-c]quinolin-1-yl)phenyl)-2-methylpropanenitrile]: the IC50 with HCT116, in the experiment on H460, in the experiment with IL-6 and in the experiment on A2780 was ≤ 1000 nM throughout. Further, the “% growth inhibition on 14th day” value in experiment [1] is recorded as 35%.

In the case of `C/C=C/C(=O)n1c(=O)n(-c2ccc(C(C)(C)C#N)cc2)c2c3cc(Br)ccc3ncc21` [Example 27, (E)-2-(4-(8-Bromo-3-but-2-enoyl-2-oxo-2,3-dihydro-1H-imidazo[4,5-c]quinolin-1-yl)phenyl)-2-methylpropanenitrile], the IC50 was 1000 to 3000 nM with HCT116, ≤ 1000 nM with H460, ≤ 1000 nM with IL-6 and > 3000 nM with A2780. In experiment [1], the “% growth inhibition on 14th day” value worked out at 36%.

In the case of `C/C=C/C(=O)n1c(=O)n(-c2ccc(C(C)(C)C#N)cc2)c2c3cc(Cl)ccc3ncc21` [Example 38, (E)-2-(4-(3-But-2-enoyl-8-chloro-2-oxo-2,3-dihydro-1H-imidazo[4,5-c]quinolin-1-yl)phenyl)-2-methylpropanenitrile], the IC50 with HCT116 was > 3000 nM; with H460, ≤ 1000 nM; with IL-6, ≤ 1000 nM; with A2780 it was > 3000 nM. Also, the “% growth inhibition on 14th day” value in experiment [1] is reported as 17%.

Consider `Cc1cccc(S(=O)(=O)n2c(=O)n(-c3ccc(C(C)(C)C#N)cc3)c3c4cc(Br)ccc4ncc32)c1` [Example 3, 2-(4-(8-Bromo-2-oxo-3-(m-tolylsulfonyl)-2,3-dihydro-1H-imidazo[4,5-c]quinolin-1-yl)phenyl)-2-methylpropanenitrile], for which the IC50 is 1000 to 3000 nM in the experiment with HCT116, ≤ 1000 nM in the experiment on H460, 1000 to 10000 nM with IL-6 and ≤ 1000 nM with A2780.

With `CC(C)(C#N)c1ccc(-n2c(=O)n(C(=O)c3ccccc3)c3cnc4ccc(Cl)cc4c32)cc1` [Example 37, 2-(4-(3-Benzoyl-8-chloro-2-oxo-2,3-dihydro-1H-imidazo[4,5-c]quinolin-1-yl)phenyl)-2-methylpropanenitrile], the concentration for half-maximal inhibition (IC50) in the experiment on HCT116 is > 3000 nM; with H460, 1000 to 3000 nM; with IL-6, ≤ 1000 nM.

The IC50 is the concentration that gives 50% inhibition.

Values taken from patent publication US8637670B2, “Imidazo [4,5-C]quinoline derivatives and their use in the treatment of tumors and/or inflammation” (Piramal Enterprises Limited, priority 2009, dated 2014).
